Source: PubChem BioAssay AID1963863 (Molecular Pharmacology Branch, DTP, NCI, 2024)

Test system: 931267-113-T-J1-PDC KRAS spheroid with HUVEC/MSC, viability
Assay: Anticancer human tumor 931267-113-T-J1-PDC patient-derived colon adenocarcinoma cell line growth inhibition [KRAS2]
Conditions: for IC50: curve of first compound; for viability, T/C: stronger effect = lower value
How it was run: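 Combination screen of spheroid viability in tumor-cell co-cultures with endothelial (HUVEC) and mesenchymal stem cell stroma. Each agent was tested in half-log dilutions, topping at clinical Cmax or at 10 microM without a known Cmax.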

[1] = second compound 0.1 µM, first compound 0.0316 µM
[2] = second compound 0.1 µM, first compound 0.1 µM
[3] = second compound 0.1 µM, first compound 0.316 µM
[4] = second compound 0.1 µM, first compound 1 µM
[5] = second compound 0.1 µM, first compound 3.16 µM
[6] = second compound 0.1 µM, first compound 10 µM
[7] = second compound 0.316 µM, first compound 0.0316 µM
[8] = second compound 0.316 µM, first compound 0.1 µM
[9] = second compound 0.316 µM, first compound 0.316 µM
[10] = second compound 0.316 µM, first compound 1 µM
[11] = second compound 0.316 µM, first compound 3.16 µM
[12] = second compound 0.316 µM, first compound 10 µM
[13] = second compound 1 µM, first compound 0.0316 µM
[14] = second compound 1 µM, first compound 0.1 µM
[15] = second compound 1 µM, first compound 0.316 µM
[16] = second compound 1 µM, first compound 1 µM
[17] = second compound 1 µM, first compound 3.16 µM
[18] = second compound 1 µM, first compound 10 µM
[19] = second compound 3.16 µM, first compound 0.0316 µM
[20] = second compound 3.16 µM, first compound 0.1 µM
[21] = second compound 3.16 µM, first compound 0.316 µM
[22] = second compound 3.16 µM, first compound 1 µM
[23] = second compound 3.16 µM, first compound 3.16 µM
[24] = second compound 3.16 µM, first compound 10 µM
[25] = second compound 10 µM, first compound 0.0316 µM
[26] = second compound 10 µM, first compound 0.1 µM
[27] = second compound 10 µM, first compound 0.316 µM
[28] = second compound 10 µM, first compound 1 µM
[29] = second compound 10 µM, first compound 3.16 µM
[30] = second compound 10 µM, first compound 10 µM
[31] = second compound 0.1 µM, first compound 0.000316 µM
[32] = second compound 0.1 µM, first compound 0.001 µM
[33] = second compound 0.1 µM, first compound 0.00316 µM
[34] = second compound 0.1 µM, first compound 0.01 µM
[35] = second compound 0.316 µM, first compound 0.000316 µM
[36] = second compound 0.316 µM, first compound 0.001 µM
[37] = second compound 0.316 µM, first compound 0.00316 µM
[38] = second compound 0.316 µM, first compound 0.01 µM
[39] = second compound 1 µM, first compound 0.000316 µM
[40] = second compound 1 µM, first compound 0.001 µM
[41] = second compound 1 µM, first compound 0.00316 µM
[42] = second compound 1 µM, first compound 0.01 µM
[43] = second compound 3.16 µM, first compound 0.000316 µM
[44] = second compound 3.16 µM, first compound 0.001 µM
[45] = second compound 3.16 µM, first compound 0.00316 µM
[46] = second compound 3.16 µM, first compound 0.01 µM
[47] = second compound 10 µM, first compound 0.000316 µM
[48] = second compound 10 µM, first compound 0.001 µM
[49] = second compound 10 µM, first compound 0.00316 µM
[50] = second compound 10 µM, first compound 0.01 µM
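Also: compound exposure lasted 7 days before the readout.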
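For viability, T/C in this document: 100% = DMSO vehicle control viability.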

CC(C)NCC(C(=O)N1CCN(c2ncnc3c2C(C)CC3O)CC1)c1ccc(Cl)cc1 (stereo not given) + COc1cc2nc(C)nc(NC(C)c3cc(N)cc(C(F)(F)F)c3)c2cc1OC1CCOC1
IC50 (second compound 0.1 µM): > 10000 nM
IC50 (second compound 0.316 µM): 5270 nM
IC50 (second compound 1 µM): 4360 nM
IC50 (second compound 3.16 µM): 1620 nM
IC50 (second compound 10 µM): < 31.6 nM
viability, T/C [1]: 87.4%
viability, T/C [2]: 105%
viability, T/C [3]: 104%
viability, T/C [4]: 77.2%
viability, T/C [5]: 58.3%
viability, T/C [6]: 59.9%
viability, T/C [7]: 106%
viability, T/C [8]: 91.6%
viability, T/C [9]: 83.3%
viability, T/C [10]: 76.2%
viability, T/C [11]: 56%
viability, T/C [12]: 40.4%
viability, T/C [13]: 88%
viability, T/C [14]: 76.9%
viability, T/C [15]: 72.7%
viability, T/C [16]: 70.4%
viability, T/C [17]: 54%
viability, T/C [18]: 37.9%
viability, T/C [19]: 78.5%
viability, T/C [20]: 76.7%
viability, T/C [21]: 67.2%
viability, T/C [22]: 54.6%
viability, T/C [23]: 42.7%
viability, T/C [24]: 20.6%
viability, T/C [25]: 0.91%
viability, T/C [26]: 1.02%
viability, T/C [27]: 0.68%
viability, T/C [28]: 0.76%
viability, T/C [29]: 0.45%
viability, T/C [30]: 0.48%

CC(C)n1nc(-c2ccc3oc(N)nc3c2)c2c(N)ncnc21 + COc1cc2nc(C)nc(NC(C)c3cc(N)cc(C(F)(F)F)c3)c2cc1OC1CCOC1
IC50 (second compound 0.1 µM): 9.26 nM
IC50 (second compound 0.316 µM): 7.45 nM
IC50 (second compound 1 µM): 9.33 nM
IC50 (second compound 3.16 µM): 6.56 nM
IC50 (second compound 10 µM): < 0.316 nM
viability, T/C [31]: 109%
viability, T/C [32]: 92.5%
viability, T/C [33]: 69%
viability, T/C [34]: 50.5%
viability, T/C [1]: 31.1%
viability, T/C [2]: 24.9%
viability, T/C [35]: 108%
viability, T/C [36]: 91.7%
viability, T/C [37]: 77.3%
viability, T/C [38]: 39.1%
viability, T/C [7]: 28.1%
viability, T/C [8]: 24.2%
viability, T/C [39]: 84.5%
viability, T/C [40]: 101%
viability, T/C [41]: 65.9%
viability, T/C [42]: 51.7%
viability, T/C [13]: 30.9%
viability, T/C [14]: 23.9%
viability, T/C [43]: 79%
viability, T/C [44]: 75.8%
viability, T/C [45]: 63.7%
viability, T/C [46]: 41.9%
viability, T/C [19]: 28.6%
viability, T/C [20]: 23.6%
viability, T/C [47]: 1.37%
viability, T/C [48]: 1.1%
viability, T/C [49]: 6.43%
viability, T/C [50]: 3.9%
viability, T/C [25]: 2.74%
viability, T/C [26]: 1.79%

CC1(C)CCC(CN2CCN(c3ccc(C(=O)NS(=O)(=O)c4ccc(NCC5CCOCC5)c([N+](=O)[O-])c4)c(Oc4cnc5[nH]ccc5c4)c3)CC2)=C(c2ccc(Cl)cc2)C1 + COc1cc2nc(C)nc(NC(C)c3cc(N)cc(C(F)(F)F)c3)c2cc1OC1CCOC1
IC50 (second compound 0.1 µM): 2100 nM
IC50 (second compound 0.316 µM): 1950 nM
IC50 (second compound 1 µM): 1820 nM
IC50 (second compound 3.16 µM): 1650 nM
IC50 (second compound 10 µM): < 31.6 nM
viability, T/C [1]: 89%
viability, T/C [2]: 88.1%
viability, T/C [3]: 90.1%
viability, T/C [4]: 95.8%
viability, T/C [5]: 27.7%
viability, T/C [6]: 8.52%
viability, T/C [7]: 86.2%
viability, T/C [8]: 90.3%
viability, T/C [9]: 84%
viability, T/C [10]: 83%
viability, T/C [11]: 26.3%
viability, T/C [12]: 5.92%
viability, T/C [13]: 76.5%
viability, T/C [14]: 93.4%
viability, T/C [15]: 76.1%
viability, T/C [16]: 84.9%
viability, T/C [17]: 19.6%
viability, T/C [18]: 2.71%
viability, T/C [19]: 61.9%
viability, T/C [20]: 86.5%
viability, T/C [21]: 60.2%
viability, T/C [22]: 69.8%
viability, T/C [23]: 24.3%
viability, T/C [24]: 4.36%
viability, T/C [25]: 0.9%
viability, T/C [26]: 2.22%
viability, T/C [27]: 0.8%
viability, T/C [28]: 1.14%
viability, T/C [29]: 2.02%
viability, T/C [30]: 0.84%

CCN1CCN(Cc2ccc(Nc3ncc(F)c(-c4cc(F)c5nc(C)n(C(C)C)c5c4)n3)nc2)CC1 + COc1cc2nc(C)nc(NC(C)c3cc(N)cc(C(F)(F)F)c3)c2cc1OC1CCOC1
IC50 (second compound 0.1 µM): 454 nM
IC50 (second compound 0.316 µM): 122 nM
IC50 (second compound 1 µM): 258 nM
IC50 (second compound 3.16 µM): 68 nM
IC50 (second compound 10 µM): < 3.16 nM
viability, T/C [33]: 86.4%
viability, T/C [34]: 86.8%
viability, T/C [1]: 62.5%
viability, T/C [2]: 74.7%
viability, T/C [3]: 45.5%
viability, T/C [4]: 45.9%
viability, T/C [37]: 80.6%
viability, T/C [38]: 90.1%
viability, T/C [7]: 72.2%
viability, T/C [8]: 51.2%
viability, T/C [9]: 47.2%
viability, T/C [10]: 37.4%
viability, T/C [41]: 78.7%
viability, T/C [42]: 78.1%
viability, T/C [13]: 76.3%
viability, T/C [14]: 56.4%
viability, T/C [15]: 53.2%
viability, T/C [16]: 42.7%
viability, T/C [45]: 74.5%
viability, T/C [46]: 67.2%
viability, T/C [19]: 49.7%
viability, T/C [20]: 48.8%
viability, T/C [21]: 42.4%
viability, T/C [22]: 27.1%
viability, T/C [49]: 3.71%
viability, T/C [50]: 1.83%
viability, T/C [25]: 2.06%
viability, T/C [26]: 3.4%
viability, T/C [27]: 1.38%
viability, T/C [28]: 0.23%

CCNC(=O)CC1N=C(c2ccc(Cl)cc2)c2cc(OC)ccc2-n2c(C)nnc21 (stereo not given) + COc1cc2nc(C)nc(NC(C)c3cc(N)cc(C(F)(F)F)c3)c2cc1OC1CCOC1
IC50 (second compound 0.1 µM): 1760 nM
IC50 (second compound 0.316 µM): 711 nM
IC50 (second compound 1 µM): 634 nM
IC50 (second compound 3.16 µM): 506 nM
IC50 (second compound 10 µM): < 31.6 nM
viability, T/C [1]: 81.1%
viability, T/C [2]: 73.4%
viability, T/C [3]: 58.7%
viability, T/C [4]: 63.5%
viability, T/C [5]: 41.7%
viability, T/C [6]: 31.9%
viability, T/C [7]: 78.1%
viability, T/C [8]: 62.4%
viability, T/C [9]: 75.9%
viability, T/C [10]: 40.7%
viability, T/C [11]: 31.4%
viability, T/C [12]: 26.6%
viability, T/C [13]: 66.1%
viability, T/C [14]: 76.3%
viability, T/C [15]: 59.1%
viability, T/C [16]: 42.1%
viability, T/C [17]: 30.8%
viability, T/C [18]: 22.4%
viability, T/C [19]: 59.5%
viability, T/C [20]: 64.7%
viability, T/C [21]: 62.4%
viability, T/C [22]: 32.5%
viability, T/C [23]: 23.2%
viability, T/C [24]: 22%
viability, T/C [25]: 2.75%
viability, T/C [26]: 3.6%
viability, T/C [27]: 1.18%
viability, T/C [28]: 0.76%
viability, T/C [29]: 0.92%
viability, T/C [30]: 0.42%

Cn1ncnc1[C@H]1c2n[nH]c(=O)c3cc(F)cc(c23)N[C@@H]1c1ccc(F)cc1 + COc1cc2nc(C)nc(NC(C)c3cc(N)cc(C(F)(F)F)c3)c2cc1OC1CCOC1
IC50 (second compound 0.1 µM): > 100 nM
IC50 (second compound 0.316 µM): > 100 nM
IC50 (second compound 1 µM): > 100 nM
IC50 (second compound 3.16 µM): > 100 nM
IC50 (second compound 10 µM): < 0.316 nM
viability, T/C [31]: 103%
viability, T/C [32]: 88.5%
viability, T/C [33]: 86.6%
viability, T/C [34]: 107%
viability, T/C [1]: 88.5%
viability, T/C [2]: 74.4%
viability, T/C [35]: 83.9%
viability, T/C [36]: 108%
viability, T/C [37]: 83.6%
viability, T/C [38]: 96.3%
viability, T/C [7]: 92.4%
viability, T/C [8]: 77.9%
viability, T/C [39]: 108%
viability, T/C [40]: 99.8%
viability, T/C [41]: 79.7%
viability, T/C [42]: 88.3%
viability, T/C [13]: 83.4%
viability, T/C [14]: 95.4%
viability, T/C [43]: 69.5%
viability, T/C [44]: 87%
viability, T/C [45]: 61.6%
viability, T/C [46]: 67.6%
viability, T/C [19]: 63.5%
viability, T/C [20]: 52.4%
viability, T/C [47]: 0.8%
viability, T/C [48]: 0.47%
viability, T/C [49]: 0.63%
viability, T/C [50]: 1.27%
viability, T/C [25]: 0.75%
viability, T/C [26]: 1.25%
